Assays:
CK1α = molecular target: T1, CK1α (Homo sapiens, UniProt P48729+Q96SW2); assay: Flow cytometry for measuring degradation, HEK293T GFP-POI reporter cells (CK1α); type: cell-based; settings: for CK1α % degradation at 100 nM / CK1α % degradation at 1 μM: 24 h, HEK293T GFP reporter; for Dmax: CK1, read-out: Dmax CK1a (%); for Dmax / DC50: Table 3; for DC50: read-out: DC50 CK1a
T1 construct: expressed in transfected cells; host or cells: HEK293T (lentiviral transduction, puromycin selection, FACS sorting)

GSPT1 = GSPT1 (Homo sapiens, UniProt P15170+Q96SW2); assay: Flow cytometry for measuring degradation, HEK293T GFP-POI reporter cells (GSPT1); type: cell-based; design: expressed in transfected cells; host or cells: HEK293T; settings: for GSPT1% degradation at 100 nM / GSPT1% degradation at 1 μM: 24 h, HEK293T GFP reporter; for Dmax: HEK-293T
IKZF1 = molecular target: T2, IKZF1 (Homo sapiens, UniProt Q13422+Q96SW2); assay: Flow cytometry for measuring degradation, HEK293T GFP-POI reporter cells (IKZF1); type: cell-based; settings: for IKZF1% degradation at 100 nM / IKZF1% degradation at 1 μM: 24 h, HEK293T GFP reporter; for Dmax: HEK-293T, Table 3
T2 construct: expressed in transfected cells; host or cells: HEK293T (lentiviral transduction, puromycin selection, FACS sorting)

IKZF2 = molecular target: T3, IKZF2 (Homo sapiens, UniProt Q96SW2+Q9UKS7); assay: Flow cytometry for measuring degradation, HEK293T GFP-POI reporter cells (IKZF2); type: cell-based; settings: for IKZF2% degradation at 100 nM / IKZF2% degradation at 1 μM: 24 h, HEK293T GFP reporter; for Dmax: HEK-293T; for Dmax / DC50: Table 3
T3 construct: expressed in transfected cells; host or cells: HEK293T (lentiviral transduction, puromycin selection, FACS sorting)

[1] = In vitro solubility in DMSO; type: physicochemical; settings: DMSO, organic solvent or mixture

Sequence of GSPT1 (P15170 whole entry): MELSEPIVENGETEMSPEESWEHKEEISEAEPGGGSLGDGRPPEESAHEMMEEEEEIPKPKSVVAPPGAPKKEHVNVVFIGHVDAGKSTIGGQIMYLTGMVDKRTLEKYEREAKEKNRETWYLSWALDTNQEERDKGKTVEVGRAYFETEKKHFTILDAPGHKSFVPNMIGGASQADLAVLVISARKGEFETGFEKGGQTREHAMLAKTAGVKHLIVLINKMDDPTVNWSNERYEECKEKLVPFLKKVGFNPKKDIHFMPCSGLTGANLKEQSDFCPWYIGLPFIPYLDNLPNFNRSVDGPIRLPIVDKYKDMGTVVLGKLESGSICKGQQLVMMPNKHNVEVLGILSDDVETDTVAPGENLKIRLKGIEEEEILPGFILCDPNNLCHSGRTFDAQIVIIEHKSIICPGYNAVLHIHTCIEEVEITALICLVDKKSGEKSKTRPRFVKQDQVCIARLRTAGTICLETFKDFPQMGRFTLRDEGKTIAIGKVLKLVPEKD
Sequence of GSPT1 (Q96SW2 whole entry): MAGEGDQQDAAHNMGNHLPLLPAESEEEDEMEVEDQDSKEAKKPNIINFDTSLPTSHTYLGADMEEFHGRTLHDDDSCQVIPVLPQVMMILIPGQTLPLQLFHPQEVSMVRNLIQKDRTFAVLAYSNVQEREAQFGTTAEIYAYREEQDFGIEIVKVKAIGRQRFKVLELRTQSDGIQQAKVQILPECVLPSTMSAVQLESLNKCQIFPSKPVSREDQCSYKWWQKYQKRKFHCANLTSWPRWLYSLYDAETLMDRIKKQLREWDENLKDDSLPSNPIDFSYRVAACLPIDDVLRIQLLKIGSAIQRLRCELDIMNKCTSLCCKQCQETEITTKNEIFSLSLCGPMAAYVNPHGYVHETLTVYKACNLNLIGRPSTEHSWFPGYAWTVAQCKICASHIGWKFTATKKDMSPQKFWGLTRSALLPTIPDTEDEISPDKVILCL
Sequence of GSPT1 (Q16531 whole entry partner): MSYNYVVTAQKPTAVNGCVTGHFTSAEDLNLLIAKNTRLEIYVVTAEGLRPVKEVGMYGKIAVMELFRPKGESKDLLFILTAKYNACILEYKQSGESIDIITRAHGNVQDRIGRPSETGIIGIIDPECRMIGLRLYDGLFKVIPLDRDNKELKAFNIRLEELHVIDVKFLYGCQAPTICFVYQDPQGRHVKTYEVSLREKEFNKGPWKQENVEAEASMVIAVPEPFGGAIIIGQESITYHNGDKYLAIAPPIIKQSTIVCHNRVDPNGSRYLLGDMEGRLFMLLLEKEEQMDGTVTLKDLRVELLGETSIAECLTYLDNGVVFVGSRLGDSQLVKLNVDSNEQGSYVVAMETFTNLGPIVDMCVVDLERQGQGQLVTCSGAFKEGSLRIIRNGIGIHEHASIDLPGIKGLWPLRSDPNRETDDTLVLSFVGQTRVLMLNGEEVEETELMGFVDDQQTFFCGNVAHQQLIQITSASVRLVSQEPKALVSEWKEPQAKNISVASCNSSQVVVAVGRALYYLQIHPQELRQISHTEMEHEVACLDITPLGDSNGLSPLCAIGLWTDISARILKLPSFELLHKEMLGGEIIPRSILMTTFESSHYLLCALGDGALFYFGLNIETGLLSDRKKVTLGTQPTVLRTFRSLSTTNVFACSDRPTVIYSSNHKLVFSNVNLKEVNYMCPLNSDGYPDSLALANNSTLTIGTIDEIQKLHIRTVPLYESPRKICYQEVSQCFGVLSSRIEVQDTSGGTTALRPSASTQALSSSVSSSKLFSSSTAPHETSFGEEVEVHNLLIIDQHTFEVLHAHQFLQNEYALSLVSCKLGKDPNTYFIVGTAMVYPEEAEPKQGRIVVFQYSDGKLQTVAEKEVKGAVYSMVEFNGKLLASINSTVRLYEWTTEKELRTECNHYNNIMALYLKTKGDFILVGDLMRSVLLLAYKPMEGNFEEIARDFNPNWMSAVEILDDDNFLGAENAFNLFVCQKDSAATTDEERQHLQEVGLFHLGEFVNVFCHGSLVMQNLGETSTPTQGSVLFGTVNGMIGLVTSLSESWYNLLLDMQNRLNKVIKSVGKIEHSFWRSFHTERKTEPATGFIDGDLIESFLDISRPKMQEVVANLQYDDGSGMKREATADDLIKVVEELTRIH
T2 sequence (Q13422 whole entry): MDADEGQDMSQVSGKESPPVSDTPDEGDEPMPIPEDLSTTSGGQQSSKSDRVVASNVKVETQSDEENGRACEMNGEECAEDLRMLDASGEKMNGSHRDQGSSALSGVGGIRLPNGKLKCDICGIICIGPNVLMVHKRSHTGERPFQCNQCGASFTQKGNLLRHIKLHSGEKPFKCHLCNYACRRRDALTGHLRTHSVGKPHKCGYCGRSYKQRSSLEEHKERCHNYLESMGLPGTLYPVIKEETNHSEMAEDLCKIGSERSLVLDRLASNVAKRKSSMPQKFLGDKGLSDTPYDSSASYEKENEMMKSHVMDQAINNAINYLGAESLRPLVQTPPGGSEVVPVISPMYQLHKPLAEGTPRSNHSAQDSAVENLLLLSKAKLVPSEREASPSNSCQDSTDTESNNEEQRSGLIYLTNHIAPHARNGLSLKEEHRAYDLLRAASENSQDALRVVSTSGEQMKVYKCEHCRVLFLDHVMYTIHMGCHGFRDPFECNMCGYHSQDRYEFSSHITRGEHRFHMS
T2 sequence (Q96SW2 whole entry): as the sequence (Q96SW2 whole entry) above
T2 sequence (Q16531 whole entry partner): as the sequence (Q16531 whole entry partner) above
T3 sequence (Q9UKS7 whole entry): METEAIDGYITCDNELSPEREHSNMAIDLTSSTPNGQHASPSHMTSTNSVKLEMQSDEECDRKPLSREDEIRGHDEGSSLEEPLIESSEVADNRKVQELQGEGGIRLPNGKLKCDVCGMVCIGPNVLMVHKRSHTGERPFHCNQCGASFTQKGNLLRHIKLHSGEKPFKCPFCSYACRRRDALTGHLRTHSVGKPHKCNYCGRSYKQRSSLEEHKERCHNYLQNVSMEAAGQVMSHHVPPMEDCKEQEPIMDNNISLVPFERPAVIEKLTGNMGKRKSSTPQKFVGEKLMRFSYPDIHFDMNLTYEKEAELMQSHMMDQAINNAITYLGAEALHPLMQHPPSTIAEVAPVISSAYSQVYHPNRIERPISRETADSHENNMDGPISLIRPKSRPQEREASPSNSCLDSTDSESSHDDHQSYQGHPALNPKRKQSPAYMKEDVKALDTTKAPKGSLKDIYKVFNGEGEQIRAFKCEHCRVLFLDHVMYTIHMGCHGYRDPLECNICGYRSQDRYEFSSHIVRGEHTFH
T3 sequence (Q96SW2 whole entry): as the sequence (Q96SW2 whole entry) above
T3 sequence (Q16531 whole entry partner): as the sequence (Q16531 whole entry partner) above
T1 sequence (P48729 whole entry): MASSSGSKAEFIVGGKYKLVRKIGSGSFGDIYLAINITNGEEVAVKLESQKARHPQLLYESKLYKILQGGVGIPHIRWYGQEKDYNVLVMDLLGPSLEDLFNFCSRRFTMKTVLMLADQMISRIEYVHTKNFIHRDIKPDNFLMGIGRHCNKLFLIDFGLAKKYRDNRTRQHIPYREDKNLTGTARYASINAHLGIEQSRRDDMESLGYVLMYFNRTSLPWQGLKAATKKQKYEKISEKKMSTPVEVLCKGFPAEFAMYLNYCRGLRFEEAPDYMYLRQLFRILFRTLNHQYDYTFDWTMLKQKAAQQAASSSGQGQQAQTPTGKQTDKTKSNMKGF
T1 sequence (Q96SW2 whole entry): as the sequence (Q96SW2 whole entry) above
T1 sequence (Q16531 whole entry partner): as the sequence (Q16531 whole entry partner) above

Row | CK1α % degradation at 100 nM (CK1α) [%] | CK1α % degradation at 1 μM (CK1α) [%] | GSPT1% degradation at 100 nM (GSPT1) [%] | GSPT1% degradation at 1 μM (GSPT1) [%] | IKZF1% degradation at 100 nM (IKZF1) [%] | IKZF1% degradation at 1 μM (IKZF1) [%] | IKZF2% degradation at 100 nM (IKZF2) [%] | IKZF2% degradation at 1 μM (IKZF2) [%] | Dmax (CK1α) [%] | DC50 (CK1α) [nM] | Dmax (GSPT1; Table 3) [%] | Dmax (IKZF1) [%] | solubility [1] [mM] | Dmax (IKZF2) [%] | DC50 (IKZF2) [nM] | DC50 (GSPT1; Table 3) [nM] | Compound
1 | 76.2 | 80.1 | 5.3 | 5.0 | 6.7 | 8.3 | 87.6 | 94.5 | 80.2 | 2.9 | 12.8 | 14.5 | > 100 | 95.9 | 7.9 |  | COCOc1ccc2cc(C(=O)Nc3ccc4c(c3)CN(C3CCC(=O)NC3=O)C4=O)ccc2c1 (stereo not shown) [DEG-92, N-(2-(2,6-dioxopiperidin-3-yl)-1-oxoisoindolin-5-yl)-6-(methoxymethoxy)-2-naphthamide]
2 | 60.2 | 74.6 | 7.8 | 10.6 | 4.9 | 7.0 | 56.0 | 87.7 | 78.9 | 21.1 | 14.6 | 10.4 |  | 95.1 | 73.1 |  | CS(=O)(=O)c1ccc2cc(C(=O)Nc3ccc4c(c3)CN(C3CCC(=O)NC3=O)C4=O)ccc2c1 (stereo not shown) [DEG-93, N-(2-(2,6-dioxopiperidin-3-yl)-1-oxoisoindolin-5-yl)-6-(methylsulfonyl)-2-naphthamide]
3 | 51.3 | 71.5 | 9.3 | 13.2 | 8.7 | 20.8 | 51.8 | 85.2 | 76.7 | 42.5 | 13.7 | 30.5 |  | 92.8 | 78.8 |  | CN1C(=O)COc2cc(C(=O)Nc3ccc4c(c3)CN(C3CCC(=O)NC3=O)C4=O)ccc21 (stereo not shown) [DEG-94, N-(2-(2,6-dioxopiperidin-3-yl)-1-oxoisoindolin-5-yl)-4-methyl-3-oxo-3,4-dihydro-2H-benzo[b][1,4]oxazine-7-carboxamide]
4 | 76.5 | 80.1 | 16.3 | 24.8 | 7.7 | 9.1 | 86.7 | 94.1 | 78.9 | 2.8 | 33.5 | 17.2 | > 100 | 95.4 | 10.4 | 1190 | CSc1ccc2cc(C(=O)Nc3ccc4c(c3)CN(C3CCC(=O)NC3=O)C4=O)ccc2c1 (stereo not shown) [DEG-95, N-(2-(2,6-dioxopiperidin-3-yl)-1-oxoisoindolin-5-yl)-6-(methylthio)-2-naphthamide]
5 | 9.2 | 26.3 | 8.6 | 10.1 | 3.6 | 5.0 | 21.4 | 57.0 | 40.3 | 503 | 14.2 | 8.3 | > 100 | 79.5 | 340 |  | CC(=O)N1CCC[C@H]1C(=O)Nc1ccc2c(c1)CN(C1CCC(=O)NC1=O)C2=O (stereo partly drawn) [DEG-96, (2S)-1-acetyl-N-(2-(2,6-dioxopiperidin-3-yl)-1-oxoisoindolin-5-yl)pyrrolidine-2-carboxamide]
6 | 60.1 | 74.1 | 1.6 | −3.4 | 2.4 | 4.1 | 52.6 | 87.1 | 78 | 32 | 5.6 | 13.1 | > 100 | 95.9 | 83.1 |  | CN1C(=O)CCc2cc(C(=O)Nc3ccc4c(c3)CN(C3CCC(=O)NC3=O)C4=O)ccc21 (stereo not shown) [DEG-97, N-(2-(2,6-dioxopiperidin-3-yl)-1-oxoisoindolin-5-yl)-1-methyl-2-oxo-1,2,3,4-tetrahydroquinoline-6-carboxamide]

Further lines, the molecule ahead of its results:

Row | Compound | CK1α % degradation at 100 nM (CK1α) [%] | CK1α % degradation at 1 μM (CK1α) [%] | GSPT1% degradation at 100 nM (GSPT1) [%] | GSPT1% degradation at 1 μM (GSPT1) [%] | IKZF1% degradation at 100 nM (IKZF1) [%] | IKZF1% degradation at 1 μM (IKZF1) [%] | IKZF2% degradation at 100 nM (IKZF2) [%] | IKZF2% degradation at 1 μM (IKZF2) [%] | Dmax (CK1α) [%] | DC50 (CK1α) [nM] | Dmax (GSPT1; Table 3) [%] | Dmax (IKZF1) [%] | solubility [1] [mM] | Dmax (IKZF2) [%] | DC50 (IKZF2) [nM] | DC50 (GSPT1; Table 3) [nM]
7 | COc1cc(Br)cc2c1OCC(C(=O)Nc1ccc3c(c1)CN(C1CCC(=O)NC1=O)C3=O)=C2 (stereo not shown) [DEG-84, 6-bromo-N-(2-(2,6-dioxopiperidin-3-yl)-1-oxoisoindolin-5-yl)-8-methoxy-2H-chromene-3-carboxamide] | 64.7 ± 0.1 | 68 ± 1.8 | 1.6 ± 1.1 | 4.1 ± 2.6 | 12.6 ± 0.5 | 26.1 ± 0.5 | 74.4 ± 0.4 | 87.8 ± 0.2 |  |  |  |  |  |  |  | 
8 | O=C1CCC(N2Cc3cc(NC(=O)C4=Cc5cc(Br)cc(Br)c5OC4)ccc3C2=O)C(=O)N1 (stereo not shown) [DEG-86, 6,8-dibromo-N-(2-(2,6-dioxopiperidin-3-yl)-1-oxoisoindolin-5-yl)-2H-chromene-3-carboxamide] | 46.5 ± 2.5 | 54.7 ± 1.2 | 5.3 ± 2 | 9.2 ± 0.7 | 12.3 ± 0.9 | 22.6 ± 0.5 | 48.7 ± 1.1 | 62.6 ± 0.5 |  |  |  |  |  |  |  | 
9 | O=C1CCC(N2Cc3cc(NC(=O)c4ccc5c(c4)CCCC5)ccc3C2=O)C(=O)N1 (stereo not shown) [DEG-87, N-(2-(2,6-dioxopiperidin-3-yl)-1-oxoisoindolin-5-yl)-5,6,7,8-tetrahydronaphthalene-2-carboxamide] | 51.1 ± 1.2 | 56.9 ± 0.8 | 1.2 ± 2.5 | 4 ± 0.6 | 15.5 ± 1 | 27.2 ± 0.7 | 74 ± 0.5 | 89.1 ± 0.4 |  |  |  |  |  |  |  | 
10 | O=C1CCC(N2Cc3cc(NC(=O)c4ccc5cc(O)ccc5c4)ccc3C2=O)C(=O)N1 (stereo not shown) [DEG-90, N-(2-(2,6-dioxopiperidin-3-yl)-1-oxoisoindolin-5-yl)-6-hydroxy-2-naphthamide] | 54.5 ± 0.6 | 71.1 ± 0.6 | −1.9 ± 1.4 | 7.8 ± 1.4 | 6 ± 0.1 | 6.3 ± 1.6 | 60 ± 1 | 89 ± 0.2 |  |  |  |  |  |  |  | 
11 | N#Cc1ccc2cc(C(=O)Nc3ccc4c(c3)CN(C3CCC(=O)NC3=O)C4=O)ccc2c1 (stereo not shown) [DEG-91, 6-cyano-N-(2-(2,6-dioxopiperidin-3-yl)-1-oxoisoindolin-5-yl)-2-naphthamide] | 74.6 | 80.3 | 9.7 | 11.5 | 8.5 | 14.4 | 89.4 | 95.3 | 81.2 | 2.6 | 14.8 | 20.6 | > 100 | 96.6 | 7 | 

Source: patent US20260021103A1, “IKZF2 AND CK1-ALPHA DEGRADING COMPOUNDS AND USES THEREOF” (President and Fellows of Harvard College, priority 2022, published 2026)
